Legend:
Type in all cases: cell-based, human
[1] = tested on: STAT3 target genes (BCL-XL, CCND1, CDK4, CDKN1A); experiment: qRT-PCR of STAT3 target genes; conditions: 3 μM, 24 hours, normalized to GAPDH, vs control
Method: Figure 5 GZD824 inhibits the SRC kinase in pre-B ALL cells A-C. Western blot analysis of […]-treated NALM6 cells. Cells were treated with DMSO, GZD824 (1μM), or GZD824 (3μM) for 24 hours. Lysates were analyzed with antibodies to (A) phospho-SRC and SRC; (B) phospho-STAT3 and STAT3; and (C) phospho-Rb, Rb, and C-Myc. D. qRT-PCR products of BCL-XL, CCND1, CDK4, and CCK[…] mRNA were normalized to GAPDH and presented as fold increase or decrease compared to control, 24 hours after treatment with 3 μM GZD824. E. NALM6 cells were treated with GZD824, SRC inhibitor (KX2-391), STAT3 inhibitor (HO-3867), or DMSO for 24 hours. Statistical analysis of Annexin V-positive cells in 3μM of drug treated NALM6 cells. All data from independent experiments are presented as mean ± SEM. Significance values: ^*P<0.05; ^**P<0.01; ^***P<0.001. RNA was extracted using TRIzol reagent (15596-026, Invitrogen, Grand Island, NY, USA), according to the manufacturer's recommended protocol. qRT-PCR was performed using Applied Biosystems StepOne and StepOne Plus Real-Time PCR Systems (Foster City, CA, USA). The experiments were repeated a minimum of three times to confirm the results.

[2] = tested on: SUPB15 cells; experiment: Annexin V apoptosis flow cytometry; conditions: 24 h
Method: Human pre-B ALL cell lines NALM6 and SUPB15 were purchased from American Type Culture Collection (ATCC, Maryland, USA). All pre-B ALL cell lines were maintained in cell culture media and conditions as recommended by the ATCC. Cells were treated with GZD824 for 24 hours. GZD824 (3μM, 1μM, or 0.5μM) was used in the experiments unless otherwise noted. NALM6 and SUPB15 cells were maintained in RPMI-1640 medium (Gibco, New York, NY, USA) with 10% fetal bovine serum (Biochrom, Melbourne, Australia). For identification of apoptotic cells among NALM6, SUPB15, and primary pre-B ALL cells, the GZD824-treated cells were stained with Annexin V Apoptosis Detection Kit (88-8007, BD ebioscience, CA, USA) according to the manufacturer's instructions (Affymetrix ebioscience, CA, USA) and then subjected to flow cytometric analysis by the Accuri™ C6 (BD Biosciences, CA, USA). For the in vitro drug sensitivity test in Figure 6A, the human CD45+ cells in spleen and bone marrow from sick mice account for over 95% of the total. We enriched human CD45+ cells in PB by MACS according to the manufacturer's instruction. After the enrichment, the purity of human CD45+ cell in PB reached 95%. […] All data were analyzed with FlowJo software (Tree Star, Inc., Ashland, USA).

[3] = tested on: phospho-SRC; experiment: Western blot of NALM6 cells; conditions: NALM6, 1μM or 3μM, 24 hours
Method: (§1) Figure 5 GZD824 inhibits the SRC kinase in pre-B ALL cells A-C. Western blot analysis of […]-treated NALM6 cells. Cells were treated with DMSO, GZD824 (1μM), or GZD824 (3μM) for 24 hours. Lysates were analyzed with antibodies to (A) phospho-SRC and SRC; (B) phospho-STAT3 and STAT3; and (C) phospho-Rb, Rb, and C-Myc. D. qRT-PCR products of BCL-XL, CCND1, CDK4, and CCK[…] mRNA were normalized to GAPDH and presented as fold increase or decrease compared to control, 24 hours after treatment with 3 μM GZD824. E. NALM6 cells were treated with GZD824, SRC inhibitor (KX2-391), STAT3 inhibitor (HO-3867), or DMSO for 24 hours. Statistical analysis of Annexin V-positive cells in 3μM of drug treated NALM6 cells. All data from independent experiments are presented as mean ± SEM. Significance values: ^*P<0.05; ^**P<0.01; ^***P<0.001. For Western blot analysis, 30 μg of total protein extracts prepared from NALM6 or primary pre-B ALL cells from SP of PDX mice were separated on SDS-PAGE and transferred to a PVDF membrane (Bio-Rad, Hercules, CA, USA). The following commercially available antibodies and dilutions were used for Western blotting: human anti-STAT3 (ab119352, Abcam, UK), human anti-phospho-STAT3 (Y705) (ab76315, Abcam, UK), human anti-SRC (ab32102, Abcam, UK), human anti-phospho-SRC ([…]) (ab185617, Abcam, UK), human anti-RB (9313, Cell Signaling Technology, MA, USA), human anti-phospho-RB (Ser807/811) (8516, Cell Signaling Technology, MA, USA), human anti-C-myc (13987, Cell Signaling Technology, MA, USA), anti-AKT (pan) ([…], Cell Signaling Technology, MA, USA), anti-phospho-AKT (Ser473) ([…], Cell Signaling Technology, MA, USA), anti-IRS-1 ([…], Cell Signaling Technology, MA, USA), and human anti-β-actin (4970, Cell Signaling Technology, MA, USA). Western blot analysis was performed with cell lines or primary pre-B ALL cells from SP following GZD824 treatment, and signal intensities were normalized to β-actin signals.

[4] = tested on: C-Myc; experiment: Western blot of NALM6 cells; conditions: NALM6, 1μM or 3μM, 24 hours
Method: as §1

[5] = tested on: phospho-Rb; experiment: Western blot of NALM6 cells; conditions: NALM6, 1μM or 3μM, 24 hours
Method: as §1

[6] = tested on: phospho-STAT3; experiment: Western blot of NALM6 cells; conditions: NALM6, 1μM or 3μM, 24 hours
Method: as §1

SMILES: Cc1ccc(C(=O)Nc2ccc(CN3CCN(C)CC3)c(C(F)(F)F)c2)cc1C#Cc1cnc2[nH]ncc2c1 [GZD824]
- BCL-XL mRNA expression [1]: downregulation
- CCKN1A (CDKN1A) mRNA expression [1]: upregulated
- CCND1 mRNA expression [1]: downregulation
- CDK4 mRNA expression [1]: downregulation
- apoptotic rate ([2]; SUPB15, 1μM): moderate
- cells undergoing apoptosis (AnnexinV+) ([2]; SUPB15, 3μM): 48.3%
- phosphorylated SRC [3]: reduced
- c-Myc oncogene expression [4]: downregulated
- Rb phosphorylation [5]: suppressed
- phosphorylated STAT3 [6]: reduced

From PMC5675611, “GZD824 suppresses the growth of human B cell precursor acute lymphoblastic leukemia cells by inhibiting the SRC kinase and PI3K/AKT pathways” (Oncotarget, 2016)
